Test results from PMC12473165, “Theranostic Potential of a New ^64Cu-Labeled NOTA-R954 Peptide Conjugate for Kinin B1R Expressing Prostate Cancer” (Pharmaceutics, 2025).
Several values for one entry are separate records, joined by “and”; a condition that tells them apart may be missing. Identical values can stand only once. Square brackets hold non-standard residues; d marks the D form. Peptide text beside a SMILES is read from it. * marks the point of attachment. NOTA = O=C(O)CN1CCN(CC(=O)O)CCN(CC(=O)*)CC1; Oic = O=C(O)[C@@H]1C[C@@H]2CCCC[C@@H]2N1; d2Nal = N[C@H](Cc1ccc2ccccc2c1)C(=O)O; αMeF = C[C@](N)(Cc1ccccc1)C(=O)O; Orn = NCCC[C@H](N)C(=O)O; βAla = NCCC(=O)O

Assays:
[1] = mouse, in vivo, iv
Procedure: To perform ex vivo biodistribution studies, radiolabeled peptides (5–10 MBq; 100 μL) were administered to isoflurane-anaesthetized normal male Balb/c mice through caudal vein injection. Organs were collected 1 h and 4 h post-injections from CO2 inhalation-euthanized animals and were washed, weighted, and radioactivity measured in a gamma counter (Cobra II auto-gamma counter, Packard). The percentage of injected dose per gram of tissue (%ID/g) was then calculated, accounting for decay correction, using external ^64Cu standards. Biodistribution of the radiolabeled peptides was also performed in PCa tumor-bearing nude mice using micro-PET imaging performed on a 7.5 cm axial and 10 cm transaxial field of view LabPET8 small-animal scanner (Gamma Medica-IDEAS Inc., Northridge, CA, USA) in combination with X-ray computer tomography (CT) (MILabs U-CT system, Utrecht, The Netherlands). For this, radiolabeled peptides (6–9 MBq in 200 μL) were delivered by tail-vein injection to isoflurane-anaesthetized mice. PET scans composed of 30 min static acquisition were acquired at 1 h and 20 h after injection. […] To quantify the tumor uptake of the radiotracer, a volume of interest (VOI) was drawn around the center of the tumor. The uptake was determined as the means of the VOI voxels having intensity in the upper quartile.

PC3 xenografts = assay: Peptide receptor radionuclide therapy (PRRT) in PC3 xenograft-bearing mice; type: in vivo, mouse; details: nude mice with s.c. PC3 xenografts, single IV dose 50 µg/kg; 65 MBq
Procedure: Male Nu/Nu nude mice (Crl:NU-Foxn1nu: 4–6 weeks old, Charles River Laboratories, Inc., Wilmington, MA, USA) were subcutaneously (s.c.) inoculated into one or both lower flanks with PCa cells. LNCap cells (10 x 10^6) and PC3 cells (2.5 × 10^6) were suspended in 0.2 mL of a 1:1 (v/v) mixture of antibiotic-free DMEM medium and Matrigel (#356234, Sigma-Aldrich) for injection. Within 10–21 days post-inoculation, solid palpable prostate tumors had developed, and the animals were used for biodistribution, PET imaging, and radiotherapy studies. […]
Therapeutic efficacies of agents were investigated in PC3 xenograft-bearing mice. […] Tumor growth was monitored with a digital vernier caliper using the following formula: length × width^2. The weight of the mice was monitored throughout the study. […] Tumor growth was normalized by calculating the ratio of the tumor volume at each time point to the initial tumor volume measured prior to treatment. […]. […]
Retrieved subcutaneous tumors (5 μm thick sections) were evaluated by H&E and semiquantitative IHC staining of B1R, Ki67 (proliferation), cleaved caspase 3 (apoptosis), CD34 (angiogenesis), and LYVE-1 (lymphangiogenesis). […] Positive Ki67 staining was determined by the nucleus count (Ki-67+ cells/total cells) in sampled fields. […]

hB1R [2] = target: T1, hB1R (Homo sapiens, UniProt P46663); assay: Radioligand competition binding on HEK293 cells stably expressing hB1R; set-up: expressed in transfected cells; host or cells: QBI-HEK293A (lentiviral transduction, puromycin selection); details: hB1R-stably expressing HEK293 cells, means of two independent experiments
T1 sequence (P46663 1-353): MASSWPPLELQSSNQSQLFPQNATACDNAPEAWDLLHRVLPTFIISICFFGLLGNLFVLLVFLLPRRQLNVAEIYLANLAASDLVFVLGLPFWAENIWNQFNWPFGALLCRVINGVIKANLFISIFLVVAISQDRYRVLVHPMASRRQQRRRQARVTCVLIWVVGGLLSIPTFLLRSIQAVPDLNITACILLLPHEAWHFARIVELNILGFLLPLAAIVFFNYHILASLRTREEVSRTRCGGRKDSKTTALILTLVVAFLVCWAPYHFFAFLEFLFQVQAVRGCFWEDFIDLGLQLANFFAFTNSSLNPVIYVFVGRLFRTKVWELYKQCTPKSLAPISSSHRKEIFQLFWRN

hB1R [3] = target: T1, hB1R; assay: NFAT-eGFP reporter assay in CHO-hB1R-NFAT-eGFP cells; type: cell-based; set-up: expressed in transfected cells; host or cells: CHO (hB1R-expressing line, then transduced with NFAT-eGFP reporter); details: means of two independent experiments; for IC50: hB1R-stably expressing CHO-NFAT cells, antagonist potency, read-out: CHO-NFAT IC50 (Table S1); for EC50: hB1R-stably expressing CHO-NFAT-eGFP cells, agonist potency, 16 h stimulation, read-out: CHO-NFAT EC50 (Table S2)
Description: The pLenti-6V5-NFAT-eGFP vector was generated from the pSIRV-NFAT-eGFP vector (a gift from Peter Steinberger, Addgene plasmid #118031). Briefly, NFAT-eGFP gene was PCR amplified using the following primers: 5′-[…]-3′ and 5′-[…]-3′). The amplified gene was then ligated into the ClaI and AgeI restriction sites of the pLenti-6V5 vector. Lentiviruses were produced using the pLenti-6V5-NFAT-eGFP vector in HEK293T cells and used to transduce a hB1R-expressing CHO cell line, followed by selection with 10 µg/mL blasticidin. […] Clones were grown in 4000 nanowells/well in 24-well plates and re-plated into 96-well plates after initial expansion via the ALS CellCelector™ (Sartorius Corporation, Bohemia, NY, USA). After clonal expansion, individual cell lines were evaluated based on their ratio of stimulated fluorescence to basal expression to determine maximum sensitivity.
Fluorescence assays performed on CHO-hB1R-NFAT-eGFP cells. Target cells were plated at 10,000 cells/well in a 96-well microplate (opaque black wells with clear flat bottom, Thermo Scientific, Rockford, IL, USA) using RPMI 1640 medium with 10% fetal bovine serum (FBS). After 24 h, the medium was replaced by RPMI without FBS and phenol red. […] Fluorescence was measured using a TECAN M1000 (Tecan Group Ltd., Männedorf, Switzerland) multimode microplate reader with excitation at 488 nm and emission at 507 nm. Each data point represents a ratio of two values, divided by the average fluorescence of six control wells. […] Antagonist affinity (Kb) was estimated from functional inhibition curves using the Gaddum (Schild) equation assuming competitive antagonism at human B1R: Kb = [B]/(dose-ratio–1), where [B] is the antagonist concentration, and the dose ratio is EC50 + Compound/EC50.

[4] = binding affinity, read-out: HEK293 IC50 (Table S1)
[5] = binding affinity of agonists, read-out: HEK293 IC50 (Table S2)

Structure (SMILES)	IC50 (hB1R [2]; [4]) [nM]	IC50 (hB1R [3])	IC50 (hB1R [2]; [5]) [nM]	EC50 (hB1R [3]) [nM]	other results
CC[C@H](C)[C@H](NC(=O)[C@@H](Cc1ccc2ccccc2c1)NC(=O)[C@H](CO)NC(=O)[C@](C)(Cc1ccccc1)NC(=O)CNC(=O)[C@@H]1CCCN1C(=O)[C@@H]1C[C@@H]2CCCC[C@@H]2N1C(=O)[C@H](CCCNC(=N)N)NC(=O)[C@H](CCCN)NC(=O)CCNC(=O)CN1CCN(CC(=O)O)CCN(CC(=O)O)CC1)C(=O)O [^64Cu/NOTA-βAla-R954, metal not drawn] ({NOTA-βAla}-[Orn]R[Oic]PG[αMeF]S[d2Nal]I-OH)	–	–	–	–	clearance from the bloodstream [1]: rapid clearance; observable toxicity (body weight) (PC3 xenografts): did not induce any observable toxicity
CC[C@H](C)[C@H](NC(=O)[C@@H](Cc1ccc2ccccc2c1)NC(=O)[C@H](CO)NC(=O)[C@](C)(Cc1ccccc1)NC(=O)CNC(=O)[C@@H]1CCCN1C(=O)[C@@H]1C[C@@H]2CCCC[C@@H]2N1C(=O)[C@H](CCCNC(=N)N)NC(=O)[C@H](CCCN)NC(=O)CN1CCN(CC(=O)O)CCN(CC(=O)O)CC1)C(=O)O (natCu complex, metal not drawn) [MAB7090]	13	9.8 nM and 10 nM	–	–	–
CC[C@H](C)[C@H](NC(=O)[C@@H](Cc1ccc2ccccc2c1)NC(=O)[C@H](CO)NC(=O)[C@](C)(Cc1ccccc1)NC(=O)CNC(=O)[C@@H]1CCCN1C(=O)C1CC2CCCCC2N1C(=O)[C@H](CCCNC(=N)N)NC(=O)[C@H](CCCN)NC(=O)CN1CCN(CC(=O)O)CCN(CC(=O)O)CC1)C(=O)O (stereo partly shown) [MAB7020]	5	0.4 nM	–	–	–
CNCC(=O)N[C@@H](CCCCNC(=O)CN1CCN(CC(=O)O)CCN(CC(=O)O)CC1)C(=O)N[C@@H](CCCNC(=N)N)C(=O)N1CCC[C@H]1C(=O)N1CCC[C@H]1C(=O)NCC(=O)N[C@@H](Cc1ccccc1)C(=O)N[C@@H](CO)C(=O)N1CCC[C@H]1C(=O)N[C@H](Cc1ccccc1)C(=O)O [MAB8066]	–	–	40	41	–
N=C(N)NCCC[C@H](NC(=O)[C@H](CCCCN)NC(=O)CCNC(=O)CN1CCN(CC(=O)O)CCN(CC(=O)O)CC1)C(=O)N1CCC[C@H]1C(=O)N1CCC[C@H]1C(=O)NCC(=O)N[C@@H](Cc1ccccc1)C(=O)N[C@@H](CO)C(=O)N1CCC[C@H]1C(=O)N[C@H](Cc1ccccc1)C(=O)O [MAB2047]	–	–	2.3	2.2	–
